In paper PMC4139061, “Structural basis of nucleoside and nucleoside drug selectivity by concentrative nucleoside transporters” (eLife, 2014):
Where “and” joins values, the source holds several entries; their conditions need not be identical. Equal values may be shown once.

Tests used:
hCNT3 (375L/446V) = hCNT3 (375L/446V) (Homo sapiens, UniProt Q9HAS3, L446V/V375L); experiment: two-electrode voltage-clamp total charge in Xenopus oocytes expressing hCNT3 (375L/446V); assay type: cell-based; conditions: mean of Exp. 1-11
Chain of hCNT3 (375L/446V) (Q9HAS3 whole entry V375L/L446V): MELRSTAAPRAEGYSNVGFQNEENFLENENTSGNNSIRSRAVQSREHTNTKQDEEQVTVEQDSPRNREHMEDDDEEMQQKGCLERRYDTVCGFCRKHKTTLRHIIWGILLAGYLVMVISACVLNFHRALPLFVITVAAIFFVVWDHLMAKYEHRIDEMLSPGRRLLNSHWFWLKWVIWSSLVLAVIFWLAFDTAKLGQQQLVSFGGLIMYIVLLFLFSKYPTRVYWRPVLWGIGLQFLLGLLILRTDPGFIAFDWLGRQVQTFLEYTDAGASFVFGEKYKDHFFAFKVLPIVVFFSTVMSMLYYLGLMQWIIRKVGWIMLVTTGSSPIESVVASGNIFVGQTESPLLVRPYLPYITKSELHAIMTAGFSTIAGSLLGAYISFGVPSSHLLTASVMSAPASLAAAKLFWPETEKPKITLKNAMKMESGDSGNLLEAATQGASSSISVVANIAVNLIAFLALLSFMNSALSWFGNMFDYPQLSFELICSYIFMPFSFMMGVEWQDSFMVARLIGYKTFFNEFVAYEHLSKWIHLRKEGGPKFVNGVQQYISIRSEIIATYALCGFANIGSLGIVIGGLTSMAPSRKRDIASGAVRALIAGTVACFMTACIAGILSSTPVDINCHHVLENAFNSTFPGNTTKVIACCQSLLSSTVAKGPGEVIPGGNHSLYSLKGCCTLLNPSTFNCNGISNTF
Description: In the paradigm of the alternating-access mechanism of sodium-coupled symporters ([Krishnamurthy et al., 2009]), substrate release is achieved by the transition from the inward-facing occluded to the inward-facing open state (Figure 6C).
(§1) Figure 6. […] (A) Model of hCNT3 nucleo-pocket. […] (B) Model of hCNT1 nucleo-pocket. […] (C) Hypothetical alternating-access mechanism of vcCNT. A cartoon representation of the different conformational states along the transport cycle is depicted. The transport domain (including HP1, HP2, TM4b, and TM7b) and TM6 are shown as cylinders. […] The nucleo-pocket in the inward-occluded conformation (bottom right) is located between TM6 and TM4 and is marked with a green star. The inward-occluded conformation is derived from the crystal structures of vcCNT. All other conformations are purely hypothetical. The transition between inward- and outward-facing conformations has been proposed to be achieved by a rigid-body movement of the transport domain across TM6 ([Johnson et al., 2012]). Extracellular and intracellular gating likely involves slight rearrangements of HP2/TM4b and HP1/TM7b, respectively. […] See Figure 6—source data 1 for total charge source data. DOI: http://dx.doi.org/10.7554/eLife.03604.024 Figure 6—source data 1. Total charge data. Total charge transported (μC) was calculated as the area under the curve of the current trace after application of the indicated nucleoside to hCNT-expressing Xenopus oocytes. Each row represents a separate experiment done using a different oocyte. The ratios of the total charge transported for the nucleosides are shown in the last columns.
The genes coding for the three hCNTs and vcCNT were cloned into a pGEM-HE vector. Plasmids were linearized using either SphI or NheI, and mRNA was transcribed using the mMESSAGE mMACHINE T7 Transcription Kit (Ambion, Grand Island, NY). […]
The oocyte-recording chamber was gravity-perfused with ND96 buffer at a rate of 2 ml/min. Membrane currents were measured using an Oocyte Clamp (OC-725C; Warner Instruments, Hamden, CT). […]

hCNT3 = molecular target: T1, hCNT3 (Homo sapiens, UniProt Q9HAS3); experiment: two-electrode voltage-clamp of Na+ currents / total charge in Xenopus oocytes expressing hCNT3; assay type: cell-based
T1 sequence (Q9HAS3 1-691): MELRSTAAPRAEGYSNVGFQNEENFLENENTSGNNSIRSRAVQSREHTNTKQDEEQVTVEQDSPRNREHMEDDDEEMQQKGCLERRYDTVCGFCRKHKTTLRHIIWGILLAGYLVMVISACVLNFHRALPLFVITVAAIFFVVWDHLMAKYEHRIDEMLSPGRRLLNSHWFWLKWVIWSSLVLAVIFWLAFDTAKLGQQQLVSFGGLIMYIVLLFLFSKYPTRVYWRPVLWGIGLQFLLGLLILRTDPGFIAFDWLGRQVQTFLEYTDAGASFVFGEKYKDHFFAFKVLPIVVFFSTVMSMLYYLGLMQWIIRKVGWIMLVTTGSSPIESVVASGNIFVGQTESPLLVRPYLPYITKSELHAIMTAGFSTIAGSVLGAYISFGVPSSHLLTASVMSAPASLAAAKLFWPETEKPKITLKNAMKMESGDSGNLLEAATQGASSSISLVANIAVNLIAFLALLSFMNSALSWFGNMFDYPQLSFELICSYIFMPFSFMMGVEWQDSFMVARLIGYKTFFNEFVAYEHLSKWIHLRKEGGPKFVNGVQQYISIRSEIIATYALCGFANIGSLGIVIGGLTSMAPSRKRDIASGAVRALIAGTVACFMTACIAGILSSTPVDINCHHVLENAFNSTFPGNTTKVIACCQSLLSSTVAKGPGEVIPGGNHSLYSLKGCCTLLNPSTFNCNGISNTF
Description: (§2) To detect nucleoside transport by hCNTs, we turned to two-electrode voltage-clamp electrophysiological recording. Because hCNTs are Na^+-nucleoside symporters, one can measure the current generated by the Na^+ transport that is coupled with nucleoside transport. We injected Xenopus oocytes with mRNA coding for each of the hCNTs and measured inward Na^+ currents elicited by the addition of different nucleosides to the extracellular side.
(§3) The genes coding for the three hCNTs and vcCNT were cloned into a pGEM-HE vector. Plasmids were linearized using either SphI or NheI, and mRNA was transcribed using the mMESSAGE mMACHINE T7 Transcription Kit (Ambion, Grand Island, NY). Defolliculated Xenopus laevis oocytes were purchased from Ecocyte Bioscience (Austin, TX). Individual oocytes were injected with 40 ng of mRNA using a 10-μl microdispenser (Drummond Scientific, Broomall, PA) fitted with a tapered glass pipette tip and incubated at 17 °C for 4–5 days in ND96 buffer (96 mM NaCl, 2 mM KCl, 1 mM MgCl2, 1.8 mM CaCl2, and 5 mM HEPES pH 7.5) with 0.1% penicillin and streptomycin before recording.
The oocyte-recording chamber was gravity-perfused with ND96 buffer at a rate of 2 ml/min. Membrane currents were measured using an Oocyte Clamp (OC-725C; Warner Instruments, Hamden, CT). Individual oocytes were penetrated with two microelectrodes filled with 3 M KCl (0.5–1.0 MΩ). All electrophysiological experiments were conducted at room temperature. The OC-725C Oocyte Clamp was computer-interfaced via an Axon Digidata 1550 and controlled by Axoscope software (Molecular Devices, Sunnyvale, CA). The current signals were filtered at 20 Hz and sampled at intervals of 20 ms. The signals were filtered at 0.5 Hz by use of pCLAMP 10.4 software for data presentation. […] Cells were discarded if resting membrane potentials were unstable or more positive than −30 mV. Oocyte membrane potentials were clamped at −90 mV for holding potentials to measure transporter-generated currents. All data are shown as means ± SEM.

vcCNT = vcCNT (Vibrio cholerae, UniProt Q9KPL5); experiment: biochemical; assay type: binding; conditions: for mAnisotropy: [pyrrolo-gemcitabine] 2.00 μM
Chain of vcCNT (Q9KPL5 entry or part of it): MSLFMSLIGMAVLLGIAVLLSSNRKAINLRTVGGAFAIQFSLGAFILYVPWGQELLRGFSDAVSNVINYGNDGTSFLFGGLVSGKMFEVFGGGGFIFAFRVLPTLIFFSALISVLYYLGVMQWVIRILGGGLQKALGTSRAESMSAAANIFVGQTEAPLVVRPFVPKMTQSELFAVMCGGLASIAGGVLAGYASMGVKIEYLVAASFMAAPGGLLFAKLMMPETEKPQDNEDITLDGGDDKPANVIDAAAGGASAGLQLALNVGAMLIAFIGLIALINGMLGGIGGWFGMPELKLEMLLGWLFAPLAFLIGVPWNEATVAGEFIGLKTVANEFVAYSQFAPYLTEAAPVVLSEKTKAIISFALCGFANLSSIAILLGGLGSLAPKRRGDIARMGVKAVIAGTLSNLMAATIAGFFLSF

hCNT2 = hCNT2 (Homo sapiens, UniProt O43868); experiment: two-electrode voltage-clamp of Na+ currents in Xenopus oocytes expressing hCNT2; assay type: cell-based; conditions: data not shown
Chain of hCNT2 (O43868 whole entry): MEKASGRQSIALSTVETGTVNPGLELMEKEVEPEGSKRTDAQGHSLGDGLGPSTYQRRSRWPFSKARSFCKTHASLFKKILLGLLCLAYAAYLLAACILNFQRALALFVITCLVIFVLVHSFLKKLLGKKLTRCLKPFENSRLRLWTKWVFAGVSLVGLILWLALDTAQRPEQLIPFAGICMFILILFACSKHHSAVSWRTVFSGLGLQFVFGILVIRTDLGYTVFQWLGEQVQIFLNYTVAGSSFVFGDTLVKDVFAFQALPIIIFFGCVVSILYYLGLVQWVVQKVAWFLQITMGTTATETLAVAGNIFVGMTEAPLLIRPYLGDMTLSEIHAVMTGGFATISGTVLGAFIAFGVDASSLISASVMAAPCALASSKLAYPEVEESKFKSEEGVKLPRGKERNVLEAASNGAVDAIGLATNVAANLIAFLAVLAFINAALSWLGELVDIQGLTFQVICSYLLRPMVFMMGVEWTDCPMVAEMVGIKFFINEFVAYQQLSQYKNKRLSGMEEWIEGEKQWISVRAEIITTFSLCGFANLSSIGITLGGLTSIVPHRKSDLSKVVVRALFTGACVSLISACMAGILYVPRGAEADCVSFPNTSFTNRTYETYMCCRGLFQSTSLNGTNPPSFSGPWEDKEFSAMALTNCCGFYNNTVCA
Description: as §2, §3
The oocyte-recording chamber was gravity-perfused with ND96 buffer at a rate of 2 ml/min. Membrane currents were measured using an Oocyte Clamp (OC-725C; Warner Instruments, Hamden, CT). Individual oocytes were penetrated with two microelectrodes filled with 3 M KCl (0.5–1.0 MΩ). […]

hCNT1 (353V/424L) = hCNT1 (353V/424L) (Homo sapiens, UniProt O00337, L353V/V424L); experiment: two-electrode voltage-clamp total charge in Xenopus oocytes expressing hCNT1 (353V/424L); assay type: cell-based; conditions: mean of Exp. 1-8
Chain of hCNT1 (353V/424L) (O00337 whole entry L353V/V424L): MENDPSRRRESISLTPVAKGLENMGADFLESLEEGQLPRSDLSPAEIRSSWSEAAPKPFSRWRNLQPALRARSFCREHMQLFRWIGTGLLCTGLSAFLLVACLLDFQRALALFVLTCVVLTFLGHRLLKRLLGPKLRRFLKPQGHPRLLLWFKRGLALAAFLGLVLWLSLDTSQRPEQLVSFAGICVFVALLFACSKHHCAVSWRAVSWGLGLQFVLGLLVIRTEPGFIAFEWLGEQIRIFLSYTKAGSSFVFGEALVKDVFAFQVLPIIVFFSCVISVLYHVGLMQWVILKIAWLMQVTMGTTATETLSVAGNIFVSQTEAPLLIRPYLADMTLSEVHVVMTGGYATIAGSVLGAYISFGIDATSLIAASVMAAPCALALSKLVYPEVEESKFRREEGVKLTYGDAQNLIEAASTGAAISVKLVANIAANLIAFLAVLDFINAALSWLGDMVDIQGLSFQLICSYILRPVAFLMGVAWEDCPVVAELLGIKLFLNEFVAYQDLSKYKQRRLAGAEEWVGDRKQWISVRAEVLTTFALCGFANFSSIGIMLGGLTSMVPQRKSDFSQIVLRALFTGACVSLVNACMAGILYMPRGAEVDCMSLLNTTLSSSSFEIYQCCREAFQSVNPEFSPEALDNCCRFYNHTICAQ
Description: as §1, §3
The oocyte-recording chamber was gravity-perfused with ND96 buffer at a rate of 2 ml/min. Membrane currents were measured using an Oocyte Clamp (OC-725C; Warner Instruments, Hamden, CT). Individual oocytes were penetrated with two microelectrodes filled with 3 M KCl (0.5–1.0 MΩ). All electrophysiological experiments were conducted at room temperature. The OC-725C Oocyte Clamp was computer-interfaced via an Axon Digidata 1550 and controlled by Axoscope software (Molecular Devices, Sunnyvale, CA). The current signals were filtered at 20 Hz and sampled at intervals of 20 ms.

Cc1cc2cn([C@@H]3O[C@H](CO)[C@@H](O)C3(F)F)c(=O)nc2[nH]1 [pyrrolo-gemcitabine]
Total charge transported, Mean (hCNT3 (375L/446V); 400 μM nucleoside, hCNT3 (375L/446V)-expressing Xenopus oocytes): 4.864 μC | Qgem/Qpyr-gem, Mean (hCNT3 (375L/446V); ratio of total charge, 400 μM each, hCNT3 (375L/446V)): 1.287 | Total charge transported, Mean (hCNT3; 200 μM nucleoside, hCNT3-expressing Xenopus oocytes, mean of Exp. 1-14): 0.082 μC | Na+ current on addition of nucleoside (hCNT3; hCNT3-expressing oocytes, 200 μM): almost no effect | Qgem/Qpyr-gem, Mean (hCNT3; ratio of total charge, 200 μM each, hCNT3, mean of Exp. 1-14): 96.071 | mAnisotropy (vcCNT; [vcCNT] 0 μM): 44.1 and 33.7 and 35.1 | mAnisotropy (vcCNT; [vcCNT] 1.0 μM): 45.4 and 36.3 and 43.5 | mAnisotropy (vcCNT; [vcCNT] 2.5 μM): 55.8 and 48.4 and 48.8 | mAnisotropy (vcCNT; [vcCNT] 5.0 μM): 72.7 and 68.7 and 59.5 | mAnisotropy (vcCNT; [vcCNT] 10 μM): 92.3 and 80.0 and 79.5 | mAnisotropy (vcCNT; [vcCNT] 25 μM): 127.1 and 118.0 and 110.9 | mAnisotropy (vcCNT; [vcCNT] 50 μM): 153.7 and 139.6 and 136.3 | mAnisotropy (vcCNT; [vcCNT] 100 μM): 173.8 and 165.0 | mAnisotropy (vcCNT; [vcCNT] 200 μM): 187.8 and 174.6 | Kd (vcCNT; direct titration of fluorescent nucleoside with vcCNT, single-site model, mean ± SEM, read-out: KD): 24 µM and 23.5 µM | decrease of KD relative to gemcitabine (vcCNT; vcCNT): ~60 fold | transport by hCNT2 (hCNT2): transported neither compound | Total charge transported, Mean (hCNT1 (353V/424L); 400 μM nucleoside, hCNT1 (353V/424L)-expressing Xenopus oocytes): 0.255 μC | Qpyr-gem/Qgem, Mean (hCNT1 (353V/424L); ratio of total charge, 400 μM each, hCNT1 (353V/424L)): 0.385
